Data as given in patent US12527788B2, “Defining RNA-small molecule affinity landscapes enables design of a small molecule inhibitor of an oncogenic non-coding RNA” (University of Florida Research Foundation, Incorporated, priority 2017, dated 2026).

Tested on: 33 mature miRNAs with potential binding sites for 4
Test: Profiling of mature miRNAs with potential binding sites in DU145 cells
Assay type: cell-based, human
Description: We further probed the selectivity of 4 by studying its effect on levels of other mature miRNAs (FIG. 8C) and on pre-miR-17, -18a and -20a. We identified miRNAs with potential binding sites for 4, as determined by HiT-StARTS, using a database of RNA folds in the human miRNA transcriptome,^38 including the 5′G_U/3′CUA bulge common to the Dicer processing sites in miR-17, -18a and -20a (n=33). The potential binding sites for 4 can occur anywhere in the miRNA; that is, they were not confined to Drosha or Dicer processing sites. Other miRNAs that contain the 5′G_U/3′CUA motif have a much lower expression level than miR-17, miR-18a, and miR-20. Studying these RNAs could allow assessment of influence of expression level on compound potency and selectivity, an important consideration in RNA targeting that has largely gone unaddressed.
Collectively, it appears that it is easier to target and inhibit the biogenesis of highly expressed miRNAs than the ones that are of lower expression. Such effects have been well-documented in the protein-targeting community but until now have not been studied in RNA targeting endeavors.
Cell Culture: DU145 cells were cultured in growth medium (Roswell Park Memorial Institute medium (RPMI) supplemented with 10% fetal bovine serum (FBS)) at 37° C. and 5% CO2 […]

CN1CCN(c2ccc(-c3ccc4nc(-c5cc(C(C)(C)C)c(OCCCC(=O)NCCCN=[N+]=[N-])c(C(C)(C)C)c5)[nH]c4c3)cc2)CC1 [Compound 4] was tested, and the “Effect on levels of 33 other mature miRNAs” value was “no statistically significant effect”.
